Measured values as given in publication PMC8015227, “Understanding the Metabolism of Proteolysis Targeting Chimeras (PROTACs): The Next Step toward Pharmaceutical Applications” (Journal of Medicinal Chemistry, 2020).
Where two headings read alike, the source gives them in different places.

Experiment: Metabolic stability in cryopreserved human hepatocytes
Assay type: in vitro ADME
Conditions: human, cryopreserved human hepatocytes (pooled, suspension)
[1] = Table S1, PROTACs, cryopreserved human hepatocytes, read-out: t1/2
[2] = supplement CSV, human hepatocytes, read-out: HLH t1/2
[3] = Figures 3-5, cryopreserved human hepatocytes, read-out: half-life (t1/2)

Experimental: Cryopreserved human hepatocytes (pooled suspension hepatocytes, Gibco) were thawed placing in a 37 °C shaking water bath according to the manufacturer’s specifications and resuspended in Williams E medium (WEM) to have 1 × 10^6 cells/mL. Samples with the test compound at 1 μM were incubated at 37 °C, and aliquots of 50 μL were collected at 0, 10, 30, 60, 120, and 240 min. The incubations were quenched 1:3 with ice-cold acetonitrile (containing 1 μM labetalol as the internal standard). Samples were then centrifuged at 12000 rpm for 5 min at 4 °C. The supernatant was concentrated by evaporation under a nitrogen stream and reconstituted with DMSO. Blank was prepared similarly but in the absence of the investigated compounds.
A Thermo Q-exactive mass spectrometer (Thermo Fisher Scientific, Waltham, MA) was used. The LC system, governed by Chromeleon X-press software, consists of a Binary pump, a thermostated autosampler, and a column compartment, all Dionex Ultimate 3000 series modules (Thermo Fisher Scientific, Waltham, MA). A volume of 2 μL was injected for each sample. Chromatographic separation of analytes was conducted in reverse-phase chromatography. In brief, a Luna Omega 1.6 μm Polar (C18, 2.1 mm × 150 mm) was used, and the mobile phases consisted of water (A) and acetonitrile (B), both containing formic acid at 0.1%. The LC flow was set at 0.400 mL/min in a 12 min gradient elution as follows: 99.5:0.5 (A/B) to 5:95 (A/B) over 10 min, 5:95 (A/B) for 2 min, and then reversion back to 99.5:0.5 (A/B) over 2.5 min. The column was operating at a constant temperature of 40 °C.

| Structure (SMILES) | half-life at 1 µM [1] [h] | half-life at 1 µM [2] [h] | half-life at 1 µM [3] [h] | half-life at 1 µM (Table S2, free ligands, cryopreserved human hepatocytes, read-out: t1/2) [h] |
| --- | --- | --- | --- | --- |
| Cc1ncsc1-c1ccc([C@H](C)NC(=O)[C@@H]2C[C@@H](O)CN2C(=O)[C@@H](NC(=O)COCCCOCCNC(=O)C[C@@H]2N=C(c3ccc(Cl)cc3)c3c(sc(C)c3C)-n3c(C)nnc32)C(C)(C)C)cc1 [Compound 10, ARV-771, reference compound] | 2.52 | 2.52 |  |  |
| Cc1ncsc1-c1ccc([C@H](C)NC(=O)[C@@H]2C[C@@H](O)CN2C(=O)[C@@H](NC(=O)CCCCCCNC(=O)c2ccc3c(c2)nc(Nc2cccc(Cl)c2)c2ccncc23)C(C)(C)C)cc1 [Compound 18, 5-((3-Chlorophenyl)amino)-N-(7-(((S)-1-((2S,4R)-4-hydroxy-2-(((S)-1-(4-(4-methylthiazol-5-yl)phenyl)ethyl)carbamoyl)pyrrolidin-1-yl)-3,3-dimethyl-1-oxobutan-2-yl)amino)-7-oxoheptyl)benzo[c][2,6]naphthyridine-8-carboxamide] | 3.48 | 3.48 | 3.48 |  |
| O=C(O)c1ccc2c(c1)nc(Nc1cccc(Cl)c1)c1ccncc12 [Compound 44, CX4945, reference compound] |  | 1.66 |  | 1.66 |
| O=C(COc1cccc2c1C(=O)N(C1CCC(=O)NC1=O)C2=O)NCCCCCCCCNC(=O)c1ccc2c(c1)nc(Nc1cccc(Cl)c1)c1ccncc12 (stereo not shown) [Compound 12, 5-((3-Chlorophenyl)amino)-N-(8-(2-((2-(2,6-dioxopiperidin-3-yl)-1,3-dioxoisoindolin-4-yl)oxy)acetamido)octyl)benzo[c][2,6]naphthyridine-8-carboxamide] | 0.69 | 0.69 |  |  |
| O=C(COc1cccc2c1C(=O)N(C1CCC(=O)NC1=O)C2=O)NCCCCCCCCCCNC(=O)c1ccc2c(c1)nc(Nc1cccc(Cl)c1)c1ccncc12 (stereo not shown) [Compound 13, 5-((3-Chlorophenyl)amino)-N-(10-(2-((2-(2,6-dioxopiperidin-3-yl)-1,3-dioxoisoindolin-4-yl)oxy)acetamido)decyl)benzo[c][2,6]naphthyridine-8-carboxamide] | 0.56 | 0.56 |  |  |
| Cc1ncsc1-c1ccc([C@H](C)NC(=O)[C@@H]2C[C@@H](O)CN2C(=O)[C@@H](NC(=O)CN2CCN(C(=O)c3ccc4c(c3)nc(Nc3cccc(Cl)c3)c3ccncc34)CC2)C(C)(C)C)cc1 [Compound 20, (2S,4R)-1-((S)-2-(2-(4-(5-((3-Chlorophenyl)amino)benzo[c][2,6]naphthyridine-8-carbonyl)piperazin-1-yl)acetamido)-3,3-dimethylbutanoyl)-4-hydroxy-N-((S)-1-(4-(4-methylthiazol-5-yl)phenyl)ethyl)pyrrolidine-2-carboxamide] | 3.63 | 3.63 | 3.63 |  |
| Cc1ncsc1-c1ccc([C@H](C)NC(=O)[C@@H]2C[C@@H](O)CN2C(=O)[C@@H](NC(=O)CCCCCCNC(=O)C[C@@H]2N=C(c3ccc(Cl)cc3)c3c(sc(C)c3C)-n3c(C)nnc32)C(C)(C)C)cc1 [Compound 8, (2S,4R)-1-((S)-2-(7-(2-((S)-4-(4-Chlorophenyl)-2,3,9-trimethyl-6H-thieno[3,2-f][1,2,4]triazolo[4,3-a][1,4]diazepin-6-yl)acetamido)heptanamido)-3,3-dimethylbutanoyl)-4-hydroxy-N-((S)-1-(4-(4-methylthiazol-5-yl)phenyl)ethyl)pyrrolidine-2-carboxamide] | 1.36 | 1.36 |  |  |
| O=C(COc1cccc2c1C(=O)N(C1CCC(=O)NC1=O)C2=O)NCCOCCOCCOCCNC(=O)COc1c(-c2csc(N3CCOCC3)n2)ccc(F)c1F (stereo not shown) [Compound 28, 2-(2,3-Difluoro-6-(2-morpholinothiazol-4-yl)phenoxy)-N-(1-((2-(2,6-dioxopiperidin-3-yl)-1,3-dioxoisoindolin-4-yl)oxy)-2-oxo-6,9,12-trioxa-3-azatetradecan-14-yl)acetamide] | 1.11 | 1.11 |  |  |
| Cc1ncsc1-c1ccc([C@H](C)NC(=O)[C@@H]2C[C@@H](O)CN2C(=O)[C@@H](NC(=O)COCCCNC(=O)COc2c(-c3csc(N4CCOCC4)n3)ccc(F)c2F)C(C)(C)C)cc1 [Compound 36] | 0.42 | 0.42 |  |  |
| Cc1ncsc1-c1ccc([C@H](C)NC(=O)[C@@H]2C[C@@H](O)CN2C(=O)[C@@H](NC(=O)CCCCCCCCCCC(=O)N2CCN(C(=O)c3cc(Cc4n[nH]c(=O)c5ccccc45)ccc3F)CC2)C(C)(C)C)cc1 [Compound 22, (2S,4R)-1-((S)-2-(12-(4-(2-Fluoro-5-((4-oxo-3,4-dihydrophthalazin-1-yl)methyl)benzoyl)piperazin-1-yl)-12-oxododecanamido)-3,3-dimethylbutanoyl)-4-hydroxy-N-((S)-1-(4-(4-methylthiazol-5-yl)phenyl)ethyl)pyrrolidine-2-carboxamide] | 1.58 | 1.58 |  |  |
| Cc1ncsc1-c1ccc([C@H](C)NC(=O)[C@@H]2C[C@@H](O)CN2C(=O)[C@@H](NC(=O)CCCCn2cc(COc3c(-c4csc(N5CCOCC5)n4)ccc(F)c3F)nn2)C(C)(C)C)cc1 [Compound 39] | 0.668 | 0.668 | 0.668 |  |
| Cc1ncsc1-c1ccc([C@H](C)NC(=O)[C@@H]2C[C@@H](O)CN2C(=O)[C@@H](NC(=O)CCCCCCC(=O)N2CCN(C(=O)c3cc(Cc4n[nH]c(=O)c5ccccc45)ccc3F)CC2)C(C)(C)C)cc1 [Compound 23, (2S,4R)-1-((S)-2-(8-(4-(2-Fluoro-5-((4-oxo-3,4-dihydrophthalazin-1-yl)methyl)benzoyl)piperazin-1-yl)-8-oxooctanamido)-3,3-dimethylbutanoyl)-4-hydroxy-N-((S)-1-(4-(4-methylthiazol-5-yl)phenyl)ethyl)pyrrolidine-2-carboxamide] | 1.52 | 1.52 |  |  |
| Cc1ncsc1-c1ccc(CNC(=O)[C@@H]2C[C@@H](O)CN2C(=O)[C@@H](NC(=O)COCCOCCOCCNC(=O)C[C@@H]2N=C(c3ccc(Cl)cc3)c3c(sc(C)c3C)-n3c(C)nnc32)C(C)(C)C)cc1 [Compound 7, MZ1, reference compound] | 3.5 | 3.5 |  |  |
| Cc1ncsc1-c1ccc([C@H](C)NC(=O)[C@@H]2C[C@@H](O)CN2C(=O)[C@@H](NC(=O)COCCOCCNC(=O)C[C@@H]2N=C(c3ccc(Cl)cc3)c3c(sc(C)c3C)-n3c(C)nnc32)C(C)(C)C)cc1 [Compound 9, (2S,4R)-1-((S)-2-(tert-Butyl)-14-((S)-4-(4-chlorophenyl)-2,3,9-trimethyl-6H-thieno[3,2-f][1,2,4]triazolo[4,3-a][1,4]diazepin-6-yl)-4,13-dioxo-6,9-dioxa-3,12-diazatetradecanoyl)-4-hydroxy-N-((S)-1-(4-(4-methylthiazol-5-yl)phenyl)ethyl)pyrrolidine-2-carboxamide] | 2.28 | 2.28 |  |  |
| O=C(COc1cccc2c1C(=O)N(C1CCC(=O)NC1=O)C2=O)NCCOCCOCCOCCNC(=O)c1ccc2c(c1)nc(Nc1cccc(Cl)c1)c1ccncc12 (stereo not shown) [Compound 14, 5-((3-Chlorophenyl)amino)-N-(1-((2-(2,6-dioxopiperidin-3-yl)-1,3-dioxoisoindolin-4-yl)oxy)-2-oxo-6,9,12-trioxa-3-azatetradecan-14-yl)benzo[c][2,6]naphthyridine-8-carboxamide] | 1.28 | 1.28 |  |  |
| Cc1ncsc1-c1ccc([C@H](C)NC(=O)[C@@H]2C[C@@H](O)CN2C(=O)[C@@H](NC(=O)COCCCNC(=O)c2ccc3c(c2)nc(Nc2cccc(Cl)c2)c2ccncc23)C(C)(C)C)cc1 [Compound 19, 5-((3-Chlorophenyl)amino)-N-(3-(2-(((S)-1-((2S,4R)-4-hydroxy-2-(((S)-1-(4-(4-methylthiazol-5-yl)phenyl)ethyl)carbamoyl)pyrrolidin-1-yl)-3,3-dimethyl-1-oxobutan-2-yl)amino)-2-oxoethoxy)propyl)benzo[c][2,6]naphthyridine-8-carboxamide] | 2.65 | 2.65 |  |  |
| Cc1sc2c(c1C)C(c1ccc(Cl)cc1)=N[C@@H](CC(=O)NCCCN1CCN(CCCNc3cccc4c3C(=O)N(C3CCC(=O)NC3=O)C4=O)CC1)c1nnc(C)n1-2 (stereo partly drawn) [Compound 6, 2-((S)-4-(4-Chlorophenyl)-2,3,9-trimethyl-6H-thieno[3,2-f][1,2,4]triazolo[4,3-a][1,4]diazepin-6-yl)-N-(3-(4-(3-((2-(2,6-dioxopiperidin-3-yl)-1,3-dioxoisoindolin-4-yl)amino)propyl)piperazin-1-yl)propyl)acetamide] | 1.45 | 1.45 | 1.45 |  |
| O=C1CCC(N2C(=O)c3cccc(NCCOCCOCCOc4c(-c5csc(N6CCOCC6)n5)ccc(F)c4F)c3C2=O)C(=O)N1 (stereo not shown) [Compound 32, 4-((2-(2-(2-(2,3-Difluoro-6-(2-morpholinothiazol-4-yl)phenoxy)ethoxy)ethoxy)ethyl)amino)-2-(2,6-dioxopiperidin-3-yl)isoindoline-1,3-dione] | 0.755 | 0.755 |  |  |
| Cc1sc2c(c1C)C(c1ccc(Cl)cc1)=N[C@@H](CC(=O)Nc1ccc(OCCOCCOCCOCCNc3cccc4c3C(=O)N(C3CCC(=O)NC3=O)C4=O)cc1)c1nnc(C)n1-2 (stereo partly shown) [Compound 3, ARV-825, reference compound] | 0.462 | 0.462 |  |  |
| O=C1CCC(N2C(=O)c3cccc(NCCCCCCNC(=O)c4ccc5c(c4)nc(Nc4cccc(Cl)c4)c4ccncc45)c3C2=O)C(=O)N1 (stereo not shown) [Compound 16, 5-((3-Chlorophenyl)amino)-N-(6-((2-(2,6-dioxopiperidin-3-yl)-1,3-dioxoisoindolin-4-yl)amino)hexyl)benzo[c][2,6]naphthyridine-8-carboxamide] | 0.578 | 0.578 |  |  |
| Cc1ncsc1-c1ccc([C@H](C)NC(=O)[C@@H]2C[C@@H](O)CN2C(=O)[C@@H](NC(=O)CCCCCCCOc2c(-c3csc(N4CCOCC4)n3)ccc(F)c2F)C(C)(C)C)cc1 [Compound 38] | 1.13 | 1.13 |  |  |
